Where a name gives a salt, the structure may show the parent alone.
Molecular target: T1, MASP-2 (CCP1-CCP2-SP) (Homo sapiens, UniProt O00187)
T1 construct: 15 μL of Enzyme MASP-2 (CCP1-CCP2-SP) in Assay Buffer
Test: Enzymatic Assay for MASP-2 (fluorogenic substrate)
Assay type: biochemical
Conditions: room temperature, 20 mM HEPES pH 7.4, 140 mM NaCl, 0.1% Tween 20, 20 min
Description: Enzymatic Assay for MASP-2
The MASP-2 assay utilizes a fluorogenic substrate, based on the cleavage site for its natural substrate C2. The assay is run at room temperature in an assay buffer containing 20 mM HEPES, pH 7.4, 140 mM NaCl and 0.1% Tween 20. Assay parameters are adjusted such that the assay is linear with respect to time, enzyme, and substrate concentrations. Under these optimized assays conditions, IC50 values are equivalent to Ki values, except in a few cases of “tight binding” inhibitors. Cases of “tight binding” or possible “slow binding” inhibitors are handled by the methods described in Copeland R. A. (2013) Evaluation of Enzyme Inhibitors in Drug Discovery. 2nd Ed., John Wiley and Sons, Inc., Chapters 5-7.
The MASP-2 assay protocol is carried out as follows. Test compounds are serially diluted in DMSO and then 100 nL of each dilution is transferred to the assay plate(s). 10 μL of Assay Buffer is added, followed by 15 μL of Enzyme MASP-2 (CCP1-CCP2-SP) in Assay Buffer. 15 μL of Substrate in Assay Buffer is then added and mixed to start the reactions. After 20 min at room temperature, 15 μL of a stop solution (0.1 M acetic acid) is added, mixed and the plates are read on a SpectraMax i3× Microplate Reader and exported as Excel files. Each assay plate included a “no inhibitor” (DMSO Only) control, a “no enzyme” control and a reference inhibitor control. % Activity values=100*(average test comp. fluorescence-average “no enzyme” fluorescence)/(average “DMSO only” fluorescence-average “no enzyme” fluorescence). IC50 and Ki values are very reproducible, falling well within ±2-fold.

T1 sequence (O00187 445-686 limits assumed): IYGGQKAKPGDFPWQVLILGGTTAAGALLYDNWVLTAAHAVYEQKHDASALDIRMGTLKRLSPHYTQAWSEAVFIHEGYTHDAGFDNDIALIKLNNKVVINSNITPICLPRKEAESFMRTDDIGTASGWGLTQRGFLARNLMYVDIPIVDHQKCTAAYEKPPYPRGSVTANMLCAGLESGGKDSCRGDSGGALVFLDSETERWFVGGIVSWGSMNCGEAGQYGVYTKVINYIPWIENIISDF
T1 sequence (O00187 287-444 partner limits assumed): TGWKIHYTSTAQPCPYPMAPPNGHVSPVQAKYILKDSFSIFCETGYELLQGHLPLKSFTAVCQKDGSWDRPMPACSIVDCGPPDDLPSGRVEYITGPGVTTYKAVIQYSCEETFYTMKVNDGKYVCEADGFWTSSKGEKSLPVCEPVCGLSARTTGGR

Ki	SMILES
< 500 nM	COC(=O)[C@@H]1C[C@@H](C(=O)NCc2ccc(C(=N)N)cc2)N(C(=O)[C@H](N)CCc2ccccc2)C1 [Compound I-1, Methyl (3R,5S)-1-((R)-2-amino-4-phenylbutanoyl)-5-((4-carbamimidoylbenzyl)carbamoyl)pyrrolidine-3-carboxylate ditrifluoroacetate]
< 500 nM	COC[C@H]1C[C@@H](C(=O)NCc2ccc(C(=N)N)cc2)N(C(=O)[C@H](N)CCc2ccccc2)C1 [Compound I-2, (2S,4S)-1-((R)-2-amino-4-phenylbutanoyl)-N-(4-carbamimidoylbenzyl)-4-(methoxymethyl)pyrrolidine-2-carboxamide dihydrochloride]
< 500 nM	N=C(N)c1ccc(CNC(=O)[C@@H]2C[C@H](c3ccccc3)CN2C(=O)[C@H](N)CCc2ccccc2)cc1 [Compound I-3, (2S,4R)-1-((R)-2-amino-4-phenylbutanoyl)-N-(4-carbamimidoylbenzyl)-4-phenylpyrrolidine-2-carboxamide dihydrochloride]
< 500 nM	N#C[C@H]1C[C@@H](C(=O)NCc2ccc(C(=N)N)cc2)N(C(=O)[C@H](N)CCc2ccccc2)C1 [Compound I-6, (2S,4S)-1-((R)-2-amino-4-phenylbutanoyl)-N-(4-carbamimidoylbenzyl)-4-cyanopyrrolidine-2-carboxamide ditrifluoroacetate]
< 500 nM	N=C(N)c1ccc(CNC(=O)[C@@H]2C[C@@H](c3ccccc3)CN2C(=O)[C@H](N)CCc2ccccc2)cc1 [Compound I-11, (2S,4S)-1-((R)-2-amino-4-phenylbutanoyl)-N-(4-carbamimidoylbenzyl)-4-phenylpyrrolidine-2-carboxamide dihydrochloride]
< 500 nM	N=C(N)c1ccc(CNC(=O)[C@@H]2CC(n3cccn3)CN2C(=O)[C@H](N)CCc2ccccc2)cc1 (stereo partly drawn) [Compound I-22, Dihydrochloride]

— patent US12692229B2, “Masp-2 inhibitors and methods of use” (Omeros Corporation, priority 2019, dated 2026)
